Experimental data as given in patent US9597331B2, “Therapeutic compositions containing macitentan” (ACTELION PHARMACEUTICALS LTD, priority 2008, dated 2017).

System: pulmonary hypertensive male Wistar rats treated with monocrotaline
Assay: Acute effect on mean pulmonary arterial pressure in monocrotaline treated rats (monocrotaline model of pulmonary hypertension, variant 2)
Assay type: in vivo, rat
Details: single administration, 25 to 30 days after monocrotaline, negative area = pressure decreases
Description: Male Wistar rats are purchased from Harlan (Netherlands) and maintained under conditions in accordance with local guidelines (Basel-Landschaft cantonal veterinary office). All rats are housed in climate-controlled conditions with a 12:12 hour light:dark cycle, and had free access to chow and water. A telemetry system is implanted under anaesthesia by inhalation of 2.5% isoflurane (in 70% O2+30% N2O). Under aseptic conditions, a pressure radio-frequency transmitter is implanted into the peritoneal cavity, and a sensing catheter is inserted in the pulmonary artery. The transmitter is sutured to the abdominal musculature and the skin is closed. […]
Four weeks after injection of MCT, the rats become pulmonary hypertensive and the respective effects of a single oral administration of Macitentan, of the compound having prostacyclin receptor (IP) agonist properties and of their combination can be evaluated on mean pulmonary arterial pressure. […]
Mean pulmonary arterial pressure was measured over time. […] Area Under Curve (AUC) was calculated for each group of rats after the oral administration of the different treatment(s) (a positive area being found if the mean pulmonary arterial blood pressure increases and a negative area being found if the mean pulmonary arterial blood pressure decreases).

Row | Compound | AUC (Area Under Curve of mean pulmonary arterial pressure vs time) (NS-304 30 mg/kg per os) | AUC (Area Under Curve of mean pulmonary arterial pressure vs time) (macitentan 10 mg/kg per os)
1 | CC(C)N(CCCCOCC(=O)NS(C)(=O)=O)c1cnc(-c2ccccc2)c(-c2ccccc2)n1 [NS-304, 2-{4-[(5,6-diphenylpyrazin-2-yl)(isopropyl)amino]butoxy}-N-(methylsulfonyl)acetamide] | −99 ± 128 | 
2 | CCCNS(=O)(=O)Nc1ncnc(OCCOc2ncc(Br)cn2)c1-c1ccc(Br)cc1 [macitentan] |  | −381 ± 147
